According to patent publication US4465683A, “Anti-psychotic agents” (priority 1979, dated 1984):
Counter-ions that a name gives are not always drawn. Like-named read-outs stand apart in the source and are kept apart here.

What was measured:
[1] = test system: conditioned avoidance response (CAR); assay: conditioned avoidance response (CAR) in rats, shuttle box technique, oral; format: in vivo; settings: Rattus norvegicus, read-out: ORAL CAR-ED50
Procedure: The apparatus employed is a box having a six-inch barrier separating two equal compartments. The floor of the left side of the box contains an electrified grid by means of which an intermittent shock is administered. The other side is not electrified. Rats are trained by placing them individually in the electrified compartment of the box and administering a foot shock which causes the rat to jump the barrier to the non-electrified side. […] The test drug is then administered in various doses to different groups of rats and the effect of the treatment in terms of the number of rats which fail to jump the barrier before receiving a foot shock is measured. That dose of test drug which will reduce the number of conditioned animals jumping the barrier before receiving a foot shock by one-half is referred to as the CAR-ED50.

reserpine ptosis = assay: Prevention of reserpine ptosis in mice (anti-depressant); format: in vivo
pernicious preening = assay: Prevention of pernicious preening in mice (anti-psychotic or analgetic); format: in vivo; settings: Mus musculus, po
phenylquinone writhing = assay: Reduction of phenylquinone writhing in mice (analgesic); format: in vivo; settings: Mus musculus, po
[2] = compared with imipramine; cited from earlier work
[3] = U.S. Pat. No. 3,381,009; cited from earlier work
schizophrenic patients = settings: et al. (1973), cited from earlier work
[4] = rats, oral, dose reducing by one-half the number of conditioned animals jumping the barrier before foot shock

CN(C)CCCN1c2ccccc2Sc2ccc(Cl)cc21 [Chlorpromazine]
ED50 ([1]; po): 38.7 mg/kg

COc1ccccc1N1CCN(CCCCn2nc3ccccn3c2=O)CC1 [Formula I, R^1 = H, R^2 = 2-CH3 O, 2-[4-[4(2-Methoxphenyl)-1-piperazinyl]-butyl]-1,2,4-triazolo[4,3-a]pyridin-3-(2H)-one Hydrochloride]
ED50 [1, 4]: 18.4 mg/kg

Cl.O=c1n(CCCCN2CCN(c3cccc(C(F)(F)F)c3)CC2)nc2ccccn12 [Formula I, R^1 = H, R^2 = 3-CF3, 2-[4-[4-[3-(Trifluoromethyl)phenyl]-1-piperazinyl]butyl]-1,2,4-triazolo[4,3-a]pyridin-3(2H)-one Hydrochloride]
ED50 [1, 4]: 11.4 mg/kg

O=c1n(CCCCN2CCN(c3cccc(Cl)c3)CC2)nc2ccccn12 [Formula I, R^1 = H, R^2 = 3-Cl, 2-[4-[4-(3-Chlorophenyl)piperazin-1-yl]butyl]-1,2,4-triazolo[4,3-a]pyridin-3-(2H)-one]
activity in prevention of reserpine ptosis (reserpine ptosis; at 15.7 mg/kg (p.o.)): inactive | ED50 (pernicious preening): 8 mg/kg | ED50 (phenylquinone writhing): 23 mg/kg | ED50 [1, 4]: 9 mg/kg

O=c1n(CCCN2CCN(c3cccc(Cl)c3)CC2)nc2ccccn12 [Trazodone, 2-[3-[4-(3-chlorophenyl)-1-piperazinyl]-propyl]-1,2,4-triazolo[4,3-a]pyridin-3(2H)-one]
ED50 (reserpine ptosis; Mus musculus, po): 36 mg/kg | clinical antidepressant effectiveness [2]: equivalent in effectiveness to imipramine | side effects in clinical use [2]: fewer side effects | ED50 (pernicious preening): 43 mg/kg | ED50 [1, 4]: 45.4 mg/kg | pharmacological actions in animal tests [3]: tranquilizing action, hypotensive action, and analgesic action | effect on depressive symptoms exhibited by schizophrenics (schizophrenic patients; Ban): improvement in depressive symptoms | anti-psychotic action in schizophrenic patients (schizophrenic patients; Galvan): minimal
